Assay [1] concerns HepG2. The assay can be described thus: Antitumor activity against human HepG2 cells by WST-1 assay. It is filed as functional, cell-based.
Assay [2] deals with KB. Kind of assay: Antitumor activity against human KB cells by WST-1 assay. It is filed as functional, cell-based. For orientation: Tetrazolium dyes change colour on reduction, which living cells bring about.
Assay [3] in a line: Antitumor activity against mouse C26 cells by WST-1 assay. The class given is functional, cell-based.
Assay [4] can be described thus: Ratio of compound IC50 to 10-hydroxycamptothecin IC50 for mouse C26 cells. It is filed as functional.

The term IC50 denotes the point on the concentration scale where inhibition reaches its midpoint.

For `CCOCc1c(O)ccc2nc3c(cc12)Cn1c-3cc2c(c1=O)COC(=O)[C@]2(O)CC`, the figures for the IC50 in assay [1], in assay [2] and in assay [3] were 3910 nM, 19700 nM and 29100 nM, respectively.

Take `CC[C@@]1(O)C(=O)OCc2c1cc1n(c2=O)Cc2cc3c(COC(C)=O)c(OC(C)=O)ccc3nc2-1`: the IC50 in assay [1] turned out to be 1000 nM; in assay [2] it was 794 nM; in assay [3], 157 nM. Besides, the “Ratio IC50” value in assay [4] came to 3.

Regarding `CC[C@@]1(O)C(=O)OCc2c1cc1n(c2=O)Cc2cc3c(COC)c(O)ccc3nc2-1`, the IC50 in assay [1] worked out at 92100 nM; in assay [2], 25400 nM; in assay [3], 101000 nM.

For `CC[C@@]1(O)C(=O)OCc2c1cc1n(c2=O)Cc2cc3c(COC(C)C)c(O)ccc3nc2-1`, the results for the IC50 in assay [1], in assay [2] and in assay [3] were 13500 nM, 7250 nM and 3880 nM, respectively.

In the case of `CC[C@@]1(O)C(=O)OCc2c1cc1n(c2=O)Cc2cc3c(COC(C)(C)C)c(O)ccc3nc2-1`, the IC50 stood at 802 nM in assay [1], 1380 nM in assay [2] and 273 nM in assay [3].

In the case of `CC[C@@]1(OC(C)=O)C(=O)OCc2c1cc1n(c2=O)Cc2cc3c(COC(C)=O)c(OC(C)=O)ccc3nc2-1`, the IC50 came out at 1310 nM in assay [1], 1150 nM in assay [2] and 424 nM in assay [3].

`CC[C@@]1(O)C(=O)OCc2c1cc1n(c2=O)Cc2cc3cc(O)ccc3nc2-1` [HYDROXYCAMPTOTHECIN]: the IC50 was 981 nM in assay [1], 829 nM in assay [2] and 496 nM in assay [3].

These data come from ChEMBL document CHEMBL1759914, “The solvolysis of topotecan in alcohols and acetic anhydride” (Bioorg Med Chem Lett, 2011).
